The values below come from patent publication US5288757A, “Aminosulfonyl urea ACAT inhibitors and a method of lowering blood cholesterol levels therewith” (priority 1993, dated 1994).

The assay concerns Plasma TC. The experiment in a line: in vivo screen designated APCC, plasma total cholesterol in rats on high fat, high cholesterol diet. Also noted: species or system male Sprague-Dawley rats. The following applies: rat, high fat, high cholesterol diet with 0.5% cholic acid, read-out: % Change in Plasma TC Values (mg/dl); for change in vivo at 50 mg/kg: * dosed at 50 mg/kg; for change in vivo at 30 mg/kg: dosed at 30 mg/kg. From the text: In one in vivo screen designated APCC, male Sprague-Dawley rats (200 to 225 g) were randomly divided into treatment groups and dosed at 4 PM with either vehicle (CMC/Tween) or suspensions of compounds in vehicle. The normal chow diet was then replaced with a high fat, high cholesterol diet with 0.5% cholic acid. The rats consumed this diet ad libitum during the night and were sacrificed at 8 AM to obtain blood samples for cholesterol analysis using standard procedures. Statistical differences between mean cholesterol values for the same vehicle were determined using analysis of variance followed by Fisher's least significant test. Compounds were dosed at 30 mg/kg unless otherwise noted.

Take `CC(C)c1cccc(C(C)C)c1NC(=O)NS(=O)(=O)N(C(C)C)C(C)C` [Example 1, N-[2,6-bis(1-methylethyl)phenyl]-N'-[[bis(1-methylethyl)amino]sulfonyl]ure]: the change in vivo at 50 mg/kg was -59%. Turning to `CC(C)c1cccc(C(C)C)c1NC(=O)NS(=O)(=O)NC(c1ccccc1)c1ccccc1` [Example 2, N-[2,6-bis(1-methylethyl)phenyl]-N'-[[(diphenylmethyl)amino]sulfonyl]urea], the change in vivo at 50 mg/kg was -14%. As for `CC(C)c1cccc(C(C)C)c1NC(=O)NS(=O)(=O)N(c1ccccc1)c1ccccc1` [Example 3], the change in vivo at 30 mg/kg was -37%.

Turning to `CCCCN(CCCC)S(=O)(=O)NC(=O)Nc1c(C(C)C)cccc1C(C)C` [Example 4, N-[2,6-bis(1-methylethyl)phenyl]-N'-[(dibutylamino)sulfonyl]urea], the change in vivo at 50 mg/kg is -66%.

Consider `CC(C)c1cccc(C(C)C)c1NC(=O)NS(=O)(=O)Nc1c(C(C)C)cccc1C(C)C` [Example 6, N-[2,6-bis(1-methylethyl)phenyl]-N'-[[[2,6-bis(1-methylethyl)phenyl]amino]sulfonyl]urea], for which the change in vivo at 50 mg/kg is -54%. In the case of `CC(C)c1cccc(C(C)C)c1NC(=O)NS(=O)(=O)NCC(c1ccccc1)c1ccccc1` [Example 7, N-[2,6-bis(1-methylethyl)phenyl]-N'-[[(2,2-diphenylethyl)amino]sulfonyl]urea], the change in vivo at 50 mg/kg was -20%.

Consider `CC(C)c1cccc(C(C)C)c1NC(=O)NS(=O)(=O)N(Cc1ccccc1)Cc1ccccc1` [Example 9, N-[2,6-bis(1-methylethyl)phenyl]-N'-[(bis(phenylmethyl)amino)sulfonyl]urea], for which the change in vivo at 50 mg/kg is -59%.

Regarding `CC(C)c1cccc(C(C)C)c1NC(=O)NS(=O)(=O)NC1c2ccccc2-c2ccccc21` [Example 10, N-[2,6-bis(1-methylethyl)phenyl]-N'-[(9H-fluoren-9-ylamino)sulfonyl]urea], the change in vivo at 50 mg/kg was -4%. For the compound `CC(C)c1cccc(C(C)C)c1NC(=O)NS(=O)(=O)N(Cc1ccccc1)C(C)C` [Example 11, N-[2,6-bis(1-methylethyl)phenyl]-N'-[[(1-methylethyl)(phenylmethyl)amino]sulfonyl]urea], the change in vivo at 50 mg/kg is -60%. Regarding `CCCCCCCCN(CCCCCCCC)S(=O)(=O)NC(=O)Nc1c(C(C)C)cccc1C(C)C` [Example 12, N-[2,6-bis(1-methylethyl)phenyl]-N'-[(dioctylamino)sulfonyl]urea], the change in vivo at 50 mg/kg is -41%. As to `CC(C)c1cccc(C(C)C)c1NC(=O)NS(=O)(=O)N1CCC(c2ccccc2)CC1` [Example 13, N-[2,6-bis(1-methylethyl)phenyl]-N'-[(4-phenyl-1-piperidinyl)sulfonyl]urea], the change in vivo at 30 mg/kg was -67%. `CCCCCCN(CCCCCC)S(=O)(=O)NC(=O)Nc1c(C(C)C)cccc1C(C)C` [Example 14]: the change in vivo at 30 mg/kg was -77%. For the compound `CC(C)c1cccc(C(C)C)c1NC(=O)NS(=O)(=O)N(CCCN(C)C)CCCN(C)C` [Example 15, N-[[bis[3-(dimethylamino)propyl]amino]sulfonyl]-N'-[2,6-bis(1-methylethyl)phenyl]urea], the change in vivo at 30 mg/kg was -30%.

With `CCCCCCNS(=O)(=O)NC(=O)Nc1c(C(C)C)cccc1C(C)C` [Example 16, N-[2,6-bis(1-methylethyl)phenyl]-N'-[(hexylamino)sulfonyl]urea], the change in vivo at 30 mg/kg is -19%. The same measure, in the same setting: to `CC(C)c1cccc(C(C)C)c1NC(=O)NS(=O)(=O)N(CC1CCCO1)CC1CCCO1` (stereo not drawn) [Example 17, N-[2,6-bis(1-methylethyl)phenyl]-N'-[[bis[(tetrahydro-2-furanyl)methyl]amino]sulfonyl]urea] belongs -53%.

`CCN(CC)S(=O)(=O)NC(=O)Nc1c(C(C)C)cccc1C(C)C` [Example 18, N-[2,6-bis(1-methylethyl)phenyl]-N'-[(diethylamino)sulfonyl]urea]: the change in vivo at 30 mg/kg was -19%.

Regarding `CCCCCCCCN(C)S(=O)(=O)NC(=O)Nc1c(C(C)C)cccc1C(C)C` [Example 19, N-[2,6-bis(1-methylethyl)phenyl]-N'-[(methyloctylamino)sulfonyl]urea], the change in vivo at 30 mg/kg is -59%.

`CC(C)c1cccc(C(C)C)c1NC(=O)NS(=O)(=O)N(C)CCc1ccccc1` [Example 20, N-[2,6-bis(1-methylethyl)phenyl]-N'-[[methyl(2-phenylethyl)amino]sulfonyl]urea]: the change in vivo at 30 mg/kg is -71%. As for `CC(C)c1cccc(C(C)C)c1NC(=O)NS(=O)(=O)N(C(C)C)C1CCCCC1` [Example 21, N-[2,6-bis(1-methylethyl)phenyl]-N'[[cyclohexyl(1-methylethyl)amino]sulfonyl]urea], the change in vivo at 30 mg/kg was -68%.

On to `CCCCCN(CCCCC)S(=O)(=O)NC(=O)Nc1c(C(C)C)cccc1C(C)C` [Example 22, N-[2,6-bis(1-methylethyl)phenyl]-N'-[(dipentylamino)sulfonyl]urea], for which the change in vivo at 30 mg/kg is -76%. The same measure, in the same setting: the same measure for `CC(C)CN(CC(C)C)S(=O)(=O)NC(=O)Nc1c(C(C)C)cccc1C(C)C` [Example 23, N-[2,6-bis(1-methylethyl)phenyl]-N'-[[bis(2-methylpropyl)amino]sulfonyl]urea]: -75%. Consider `C=CCN(CC)S(=O)(=O)NC(=O)Nc1c(C(C)C)cccc1C(C)C` [Example 24, N-[2,6-bis(1-methylethyl)phenyl]-N'-[[ethyl(2-propenyl)amino]sulfonyl]urea], for which the change in vivo at 30 mg/kg is -48%. Consider `CC(C)CCN(CCC(C)C)S(=O)(=O)NC(=O)Nc1c(C(C)C)cccc1C(C)C` [Example 25, N-[[bis(3-methylbutyl)amino]sulfonyl]-N'-[2,6-bis(1-methylethyl)phenyl] urea], for which the change in vivo at 30 mg/kg was -60%. Take `CCCCCCCCCCN(CCCCCCCCCC)S(=O)(=O)NC(=O)Nc1c(C(C)C)cccc1C(C)C` [Example 26, N-[2,6-bis(1-methylethyl)phenyl]-N'-[(didecylamino)sulfonyl]urea]: the change in vivo at 30 mg/kg was -57%. As to `CCCCCCCCCCCCN(CCCCCCCCCCCC)S(=O)(=O)NC(=O)Nc1c(C(C)C)cccc1C(C)C` [Example 27], the change in vivo at 30 mg/kg came to 5%. Same read-out and setting: to `CC(C)c1cccc(C(C)C)c1NC(=O)NS(=O)(=O)N(C1CCCCC1)C1CCCCC1` [Example 29, N-[2,6-bis(1-methylethyl)phenyl]-N'-[(dicyclohexylamino)sulfonyl]urea] belongs -64%.

For `CCCCN(C)S(=O)(=O)NC(=O)Nc1c(C(C)C)cccc1C(C)C` [Example 30, N-[2,6-bis(1-methylethyl)phenyl]-N'-[(butylmethylamino)sulfonyl]urea], the change in vivo at 30 mg/kg is -56%. Same read-out and setting: to `CCCCCCCCCCCCCCCCCCN(C)S(=O)(=O)NC(=O)Nc1c(C(C)C)cccc1C(C)C` [Example 31, N-[2,6-bis(1-methylethyl)phenyl]-N'-[(methyloctadecylamino)sulfonyl]urea] belongs -60%. Consider `CC(C)NS(=O)(=O)NC(=O)Nc1c(C(C)C)cccc1C(C)C` [Example 32, N-[2,6-bis(1-methylethyl)phenyl]-N'-[[(1-methylethyl)amino]sulfonyl]urea], for which the change in vivo at 30 mg/kg was -17%.

For `C=CCN(CC=C)S(=O)(=O)NC(=O)Nc1c(C(C)C)cccc1C(C)C` [Example 33, N-[2,6-bis(1-methylethyl)phenyl]-N'-[(di-2-propenylamino)sulfonyl]urea], the change in vivo at 30 mg/kg was -67%.
